From EP0641797A1, “Cephem derivatives and antimicrobial agents containing the same” (KATAYAMA SEIYAKUSYO CO. Ltd., priority 1993, dated 1995)
In brackets after ≈: the same amount, converted by molar mass. Where two headings read alike, the source gives them in different places.

How the values were obtained:
Assay in all cases: MIC on standard strains, standard method of Japan Society of Chemotherapy
Assay type in all cases: cell-based
[1] = test system: A. calcoaceticos T59; conditions: read-out: MIC
Experimental: (§1) Antimicrobial activity of the compounds of the present invention were measured using CTM (cefotiam) and FMOX (flomoxef) as control drugs in accordance with the standard method of Japan Society of Chemotherapy. Of the 25 standard strains used in this test, Staphylococcus aureus 167 and Staphylococcus aureus 195 belong to MRSA.
(§2) In these tables, drugs tested are shown by the corresponding examples in which they were synthesized.

[2] = test system: A. faecalis ATCC 3750
Experimental: as §1, §2

[3] = test system: B. subtilis ATCC 6633; conditions: Bacillus subtilis, ATCC6633, B. subtilis ATCC 6633; read-out: MIC
Experimental: as §1, §2

[4] = test system: C. freundii ATCC 8090; conditions: Citrobacter freundii, ATCC8090, C. freundii ATCC 8090; read-out: MIC
Experimental: as §1, §2

[5] = test system: E. cloacae ATCC 13407
Experimental: as §1, §2

[6] = test system: E. cloacae Nek39; conditions: Enterobacter cloacae, NEK39, E. cloacae Nek39; read-out: MIC
Experimental: as §1, §2

[7] = test system: E. coli CSH2(RE45)
Experimental: as §1, §2

[8] = test system: E. coli CSH2(RK1); conditions: Escherichia coli
Experimental: as §1, §2

[9] = test system: E. coli NHIJ JC-2; conditions: Escherichia coli, NHIJJC2
Experimental: as §1, §2

[10] = test system: K. pneuminiae IFO 3317
Experimental: as §1, §2

[11] = test system: K. pneuminiae No. 42
Experimental: as §1, §2

[12] = test system: M. luteus ATCC 9341; conditions: Micrococcus luteus, ATCC9341
Experimental: as §1, §2

[13] = test system: M. morganii IFO 3848; conditions: Morganella morganii, IFO3848
Experimental: as §1, §2

[14] = test system: P. aeruginosa AKR17; conditions: Pseudomonas aeruginosa
Experimental: as §1, §2

[15] = test system: P. aeruginosa NCTC 10490
Experimental: as §1, §2

[16] = test system: P. cepacia; conditions: Burkholderia cepacia, read-out: MIC
Experimental: as §1, §2

[17] = test system: P. mirabilis IFO 3849
Experimental: as §1, §2

[18] = test system: P. vulugaris OX-19
Experimental: as §1, §2

[19] = test system: S. aureus 167; conditions: Staphylococcus aureus; S. aureus 167 (MRSA)
Experimental: as §1, §2

[20] = test system: S. aureus 195; conditions: Staphylococcus aureus; S. aureus 195 (MRSA)
Experimental: as §1, §2

[21] = test system: S. aureus 209p JC-1
Experimental: as §1, §2

[22] = test system: S. aureus Smith
Experimental: as §1, §2

[23] = test system: S. epidemidis IAM 1296
Experimental: as §1, §2

[24] = test system: S. marcescens IAM 1184
Experimental: as §1, §2

[25] = test system: S. marcescens No. 16-2; conditions: Serratia marcescens, NO.162
Experimental: as §1, §2

[26] = Alcaligenes faecalis, ATCC3750, A. faecalis ATCC 3750, read-out: MIC
[27] = Enterobacter cloacae, ATCC13407, E. cloacae ATCC 13407, read-out: MIC
[28] = Pseudomonas aeruginosa, NCTC10490, P. aeruginosa NCTC 10490, read-out: MIC
[29] = Proteus mirabilis, IFO3849, P. mirabilis IFO 3849, read-out: MIC
[30] = Staphylococcus aureus, 209P, read-out: MIC
[31] = Staphylococcus aureus, read-out: MIC
[32] = Serratia marcescens, IAM1184, S. marcescens IAM 1184, read-out: MIC

| Structure (SMILES) | MIC [1] | MIC [2, 26] | MIC [3] | MIC [4] | MIC [5, 27] | MIC [6] | MIC ([7]; Escherichia coli) | MIC [8] | MIC [9] | MIC [10] | MIC [11] | MIC [12] | MIC [13] | MIC [14] | MIC [15, 28] | MIC [16] | MIC [17, 29] | MIC [18] | MIC [19] | MIC [20] | other results |
| --- | --- | --- | --- | --- | --- | --- | --- | --- | --- | --- | --- | --- | --- | --- | --- | --- | --- | --- | --- | --- | --- |
| Nc1nc(/C(=N/O)C(=O)N[C@@H]2C(=O)N3C(C(=O)[O-])=C(C[n+]4cccc(-c5cscn5)c4)CS[C@H]23)cs1 [Ex. 9, 7β-[2-(2-aminothiazol-4-yl)-2-syn-hydroxyiminoacetamido]-3-[3-(thiazol-4-yl)pyridinio]methyl-3-cephem-4-carboxylate iodide] | 12.5 µg/mL | 3.13 µg/mL | 0.2 µg/mL | 0.2 µg/mL | 1.56 µg/mL | 50 µg/mL | 0.39 µg/mL | 0.39 µg/mL | 0.2 µg/mL | 0.2 µg/mL | 0.39 µg/mL | 0.05 µg/mL | 0.1 µg/mL | > 100 µg/mL | 3.13 µg/mL | > 100 µg/mL | 0.39 µg/mL | 0.39 µg/mL | 6.25 µg/mL | 1.56 µg/mL | MIC [21, 30]: 0.1 µg/mL; MIC [22, 31]: 0.2 µg/mL; MIC [23]: 0.05 µg/mL; MIC [24, 32]: 0.39 µg/mL; MIC [25]: 50 µg/mL |
| CN(C)CCn1nnnc1SCC1=C(C(=O)O)N2C(=O)[C@@H](NC(=O)Cc3csc(N)n3)[C@H]2SC1 [CTM, cefotiam, reference compound] | > 100 µg/mL | 6.25 µg/mL (≈ 11.9 µM) | 0.39 µg/mL (≈ 0.742 µM) | 0.78 µg/mL (≈ 1.48 µM) | 50 µg/mL (≈ 95.1 µM) | > 100 µg/mL | 0.2 µg/mL (≈ 0.38 µM) | 0.2 µg/mL (≈ 0.38 µM) | 0.2 µg/mL (≈ 0.38 µM) | 0.2 µg/mL (≈ 0.38 µM) | 0.39 µg/mL (≈ 0.742 µM) | 0.39 µg/mL (≈ 0.742 µM) | 0.2 µg/mL (≈ 0.38 µM) | > 100 µg/mL | > 100 µg/mL | > 100 µg/mL | 0.78 µg/mL (≈ 1.48 µM) | 0.39 µg/mL (≈ 0.742 µM) | > 100 µg/mL | > 100 µg/mL | MIC ([2]; A. faecalis ATCC 3750): 3.13 µg/mL (≈ 5.95 µM); MIC ([5]; E. cloacae ATCC 13407): >100 µg/mL; MIC [7]: 0.39 µg/mL (≈ 0.742 µM); MIC ([15]; P. aeruginosa NCTC 10490): 100 µg/mL (≈ 190 µM); MIC ([17]; P. mirabilis IFO 3849): 0.39 µg/mL (≈ 0.742 µM); MIC [21]: 0.78 µg/mL (≈ 1.48 µM); MIC [21, 30]: 1.56 µg/mL (≈ 2.97 µM); MIC [22]: 0.78 µg/mL (≈ 1.48 µM); MIC [22, 31]: 1.56 µg/mL (≈ 2.97 µM); MIC [23]: 0.39 µg/mL (≈ 0.742 µM); MIC ([24]; S. marcescens IAM 1184): 3.13 µg/mL (≈ 5.95 µM); MIC [24, 32]: 6.25 µg/mL (≈ 11.9 µM); MIC [25]: > 100 µg/mL |
| Nc1nc(/C(=N/O)C(=O)N[C@@H]2C(=O)N3C(C(=O)[O-])=C(C[n+]4ccc(-c5cncs5)cc4)CS[C@H]23)cs1 [Ex. 22, 7β-[2-(2-aminothiazol-4-yl)-2-syn-hydroxyiminoacetamido]-3-[4-(thiazol-5-yl)pyridinio]methyl-3-cephem-4-carboxylate] | 12.5 µg/mL (≈ 23 µM) | 1.56 µg/mL (≈ 2.87 µM) | 0.2 µg/mL (≈ 0.368 µM) | 0.1 µg/mL (≈ 0.184 µM) | 0.78 µg/mL (≈ 1.43 µM) | 25 µg/mL (≈ 46 µM) | 0.1 µg/mL (≈ 0.184 µM) | 0.2 µg/mL (≈ 0.368 µM) | 0.1 µg/mL (≈ 0.184 µM) | 0.05 µg/mL (≈ 0.092 µM) | 0.1 µg/mL (≈ 0.184 µM) | 0.025 µg/mL (≈ 0.046 µM) | 0.025 µg/mL (≈ 0.046 µM) | > 100 µg/mL | 3.13 µg/mL (≈ 5.76 µM) | > 100 µg/mL | 0.1 µg/mL (≈ 0.184 µM) | 0.1 µg/mL (≈ 0.184 µM) | 1.56 µg/mL (≈ 2.87 µM) | 0.78 µg/mL (≈ 1.43 µM) | MIC [21, 30]: 0.2 µg/mL (≈ 0.368 µM); MIC [22, 31]: 0.2 µg/mL (≈ 0.368 µM); MIC [23]: 0.1 µg/mL (≈ 0.184 µM); MIC [24, 32]: 0.1 µg/mL (≈ 0.184 µM); MIC [25]: 25 µg/mL (≈ 46 µM) |
| Nc1nc(/C(=N/O)C(=O)N[C@@H]2C(=O)N3C(C(=O)[O-])=C(C[n+]4ccc(-c5nccs5)cc4)CS[C@H]23)cs1 [Ex. 21, 7β-[2-(2-aminothiazol-4-yl)-2-syn-hydroxyiminoacetamido]-3-[4-(thiazol-2-yl)pyridinio]methyl-3-cephem-4-carboxylate] | 12.5 µg/mL (≈ 23 µM) | 0.78 µg/mL (≈ 1.43 µM) | 0.2 µg/mL (≈ 0.368 µM) | 0.1 µg/mL (≈ 0.184 µM) | 1.56 µg/mL (≈ 2.87 µM) | 50 µg/mL (≈ 92 µM) | 0.1 µg/mL (≈ 0.184 µM) | 0.2 µg/mL (≈ 0.368 µM) | 0.1 µg/mL (≈ 0.184 µM) | 0.1 µg/mL (≈ 0.184 µM) | 0.2 µg/mL (≈ 0.368 µM) | 0.025 µg/mL (≈ 0.046 µM) | 0.05 µg/mL (≈ 0.092 µM) | > 100 µg/mL | 6.25 µg/mL (≈ 11.5 µM) | > 100 µg/mL | 0.2 µg/mL (≈ 0.368 µM) | 0.1 µg/mL (≈ 0.184 µM) | 3.13 µg/mL (≈ 5.76 µM) | 1.56 µg/mL (≈ 2.87 µM) | MIC [21, 30]: 0.2 µg/mL (≈ 0.368 µM); MIC [22, 31]: 0.39 µg/mL (≈ 0.717 µM); MIC [23]: 0.1 µg/mL (≈ 0.184 µM); MIC [24, 32]: 0.1 µg/mL (≈ 0.184 µM); MIC [25]: 50 µg/mL (≈ 92 µM) |
